From publication PMC11047580, “Design and Synthesis of Novel Amino and Acetamidoaurones with Antimicrobial Activities” (Antibiotics, 2024)
≈ marks a conversion by molar mass, not a printed value.

Experiments:
[1] = system: S. aureus ATCC6538P; assay: MIC assay; type: cell-based, Staphylococcus aureus; details: Staphylococcus aureus, ATCC6538P; two-fold serial dilutions in liquid media; n = 2–3
[2] = Cytotoxic assay (resazurin); details: human, HepG2 liver cells
[3] = system: human cells (A498, BEAS-2B, Caco-2, HaCaT, HepG2, IMR-90)
[4] = system: Enterococcus faecalis (DSM2570); assay: MIC assay; type: cell-based; details: two-fold serial dilutions in liquid media, n = 2–3
[5] = system: human cells (A498, BEAS-2B, Caco-2, HaCaT, HepG2, IMR-90); assay: Cytotoxic assay, summary over the six human cell types
[6] = as above; details: human, 48 h exposure
[7] = system: Bacillus anthracis (CNR-charbon_04022); assay: microbe, parasite or virus in culture; type: cell-based; details: read-out: MIC Bacillus anthracis (CNR-charbon_04022)
[8] = Cytotoxic assay (resazurin); details: human, IMR-90 normal lung fibroblasts
[9] = system: normal epidermal keratinocytes (HaCaT); details: human
[10] = system: MRSA (ATCCBAA-1717); assay: MIC assay; type: cell-based, methicillin-resistant S. aureus; details: Staphylococcus aureus, read-out: MIC MRSA (ATCCBAA-1717)
[11] = system: Shigella flexneri (ATCC12022); assay: MIC assay; type: cell-based; details: two-fold serial dilutions in liquid media, n = 2–3
[12] = system: Streptococcus pyogenes (DSM20565); assay: MIC assay; type: cell-based; details: two-fold serial dilutions in liquid media, n = 2–3
[13] = system: B. subtilis ATCC6633; assay: MIC assay; type: cell-based, Bacillus subtilis; details: Bacillus subtilis, ATCC6633; two-fold serial dilutions in liquid media; n = 2–3
[14] = Cytotoxic assay (resazurin); details: human, A498 kidney epithelial cells
[15] = system: kidney epithelial cell line A498; details: human
[16] = system: Yersinia pestis (NR-641); assay: microbe, parasite or virus in culture; type: cell-based; details: read-out: MIC Yersinia pestis (NR-641)
[17] = system: Klebsiella pneumonia (DSM26371); assay: MIC assay; type: cell-based; details: two-fold serial dilutions in liquid media, n = 2–3
[18] = system: Bacillus cereus (DSM31); assay: MIC assay; type: cell-based; details: two-fold serial dilutions in liquid media, n = 2–3
[19] = system: Vibrio alginolyticus (DSM2171); assay: MIC assay; type: cell-based; details: two-fold serial dilutions in liquid media, n = 2–3
[20] = system: Candida glabrata (DSM11226); assay: MIC assay; type: cell-based; details: Nakaseomyces glabratus, two-fold serial dilutions in liquid media, n = 2–3
[21] = system: E. coli ATCC8739; assay: MIC assay; type: cell-based, Escherichia coli; details: Escherichia coli, ATCC8739; two-fold serial dilutions in liquid media; n = 2–3
[22] = system: Candida auris (DSM21092); assay: MIC assay; type: cell-based; details: Candidozyma auris, two-fold serial dilutions in liquid media, n = 2–3
[23] = system: Clostridium botulinum (DSM1985); assay: microbe, parasite or virus in culture; type: cell-based; details: DSM1985, read-out: MIC Clostridium botulinum (DSM1985)
[24] = system: normal lung fibroblasts IMR-90; details: human
[25] = system: liver cell line HepG2; details: human
[26] = system: Enterobacter cloacae (DSM30054); assay: MIC assay; type: cell-based; details: two-fold serial dilutions in liquid media, n = 2–3
[27] = system: Candida tropicalis (DSM9419); assay: MIC assay; type: cell-based; details: two-fold serial dilutions in liquid media, n = 2–3
[28] = system: P. aeruginosa ATCC9027; assay: MIC assay; type: cell-based, Pseudomonas aeruginosa; details: Pseudomonas aeruginosa, ATCC9027; two-fold serial dilutions in liquid media; n = 2–3
[29] = system: Brucella melitensis (NR-256); assay: microbe, parasite or virus in culture; type: cell-based; details: read-out: MIC Brucella melitensis (NR-256)
[30] = system: Acinetobacter baumannii (DSM30007); assay: MIC assay; type: cell-based; details: two-fold serial dilutions in liquid media, n = 2–3
[31] = system: Francisella tularensis (NR-643); assay: microbe, parasite or virus in culture; type: cell-based; details: read-out: MIC Francisella tularensis (NR-643)
[32] = system: Mycobacterium abscessus S (CIP 104536^T); assay: MIC assay (REMA); type: cell-based; details: REMA microdilution, n = 2–3
[33] = Cytotoxic assay (resazurin); details: human, HaCaT normal epidermal keratinocytes
[34] = system: Propionibacterium acnes (ATCC6919); assay: MIC assay; type: cell-based; details: Cutibacterium acnes, two-fold serial dilutions in liquid media, n = 2–3
[35] = system: normal lung epithelial cells BEAS-2B; details: human
[36] = system: Aspergillus fumigatus (DSM819); assay: MIC assay; type: cell-based; details: two-fold serial dilutions in liquid media, n = 2–3
[37] = system: Listeria monocytogenes (DSM20600); assay: MIC assay; type: cell-based; details: two-fold serial dilutions in liquid media, n = 2–3

CC(=O)Nc1ccc2c(c1)C(=O)/C(=C/c1cccc(OCc3ccccc3)c1)O2 [Compound 10, (Z)-N-(2-(3-(benzyloxy)benzylidene)-3-oxo-2,3-dihydrobenzofuran-5-yl)acetamide]
MIC [1]: 12.5 µM (≈ 4.82 µg/mL) | CC50 at 48 h [2]: 472 µM | TI values, range over human cells [3]: 216.6-605.6 | MIC [4]: 50 µM (≈ 19.3 µg/mL) | Highest TI ([5]; highest CC50 on human cells divided by MIC on S. aureus): 37.7 | Lowest TI ([5]; lowest CC50 on human cells divided by MIC on S. aureus): 13.5 | CC50 at 48 h ([6]; Highest CC50, highest of the six human cell types): 472 µM | CC50 at 48 h ([6]; Lowest CC50, lowest of the six human cell types): 169 µM | CC50 at 48 h ([6]; Mean CC50, mean over the six human cell types): 322 µM | MIC [7]: 12.5 µM (≈ 4.82 µg/mL) | CC50 at 48 h [8]: 421 µM | TI with MIC of 0.78 µM, HaCaT [9]: 344.2 | MIC [10]: 12.5 µM (≈ 4.82 µg/mL) | melting point: 204.5 °C | MIC [11]: 25 µM (≈ 9.64 µg/mL) | MIC [12]: 50 µM (≈ 19.3 µg/mL) | MIC [13]: 3.12 µM (≈ 1.2 µg/mL) | CC50 at 48 h [14]: 398 µM | TI with MIC of 0.78 µM, A498 [15]: 510.5 | MIC [16]: 12.5 µM (≈ 4.82 µg/mL) | MIC ([17]; Klebsiella pneumoniae, DSM26371): > 100 µM | MIC [17]: >100 µM | MIC [18]: 12.5 µM (≈ 4.82 µg/mL) | MIC [19]: 25 µM (≈ 9.64 µg/mL) | MIC [20]: 50 µM (≈ 19.3 µg/mL) | MIC [21]: 12.5 µM (≈ 4.82 µg/mL) | MIC [22]: 50 µM (≈ 19.3 µg/mL) | MIC [23]: 0.78 µM (≈ 0.301 µg/mL) | TI with MIC of 0.78 µM, IMR-90 [24]: 540.2 | TI with MIC of 0.78 µM, HepG-2 [25]: 605.6 | MIC ([26]; Enterobacter cloacae, DSM30054): > 100 µM | MIC [26]: >100 µM | MIC [27]: 100 µM (≈ 38.5 µg/mL) | MIC [28]: 25 µM (≈ 9.64 µg/mL) | MIC [29]: 25 µM (≈ 9.64 µg/mL) | MIC [30]: 12.5 µM (≈ 4.82 µg/mL) | MIC [31]: 50 µM (≈ 19.3 µg/mL) | MIC ([32]; Mycobacteroides abscessus, CIP104536, S morphotype): > 100 µM | MIC Mycobacterium abscessus S (CIP 104536^T) ([32]; S morphotype): inactive | CC50 at 48 h [33]: 268 µM | MIC [34]: 100 µM (≈ 38.5 µg/mL) | TI with MIC of 0.78 µM, BEAS-2B [35]: 216.6 | MIC ([36]; Aspergillus fumigatus, DSM819): > 100 µM | MIC Aspergillus fumigatus (DSM819) [36]: inactive | MIC [37]: 3.12 µM (≈ 1.2 µg/mL)
